Results reported in US20240158339A1, “TYRAMINE CONTAINING HYDROXYCINNAMIC ACID AMIDE DERIVATIVES AND METHODS OF USE THEREOF” (Brightseed, Inc., priority 2018, published 2024).

Columns and labels:
HNF4α = molecular target: T1, HNF4α (Homo sapiens, UniProt P41235); test: Insulin promoter activity assay (HNF4α assay) in T6PNE cells; format: cell-based
T1 construct: T6PNE cells (Kiselyuk, et al. (2012) Chem. Biol. 19(7):806-818; Kiselyuk, et al. (2010) J. Biomol; endogenous in cells; host or cells: T6PNE cells
T1 sequence (P41235 1-474): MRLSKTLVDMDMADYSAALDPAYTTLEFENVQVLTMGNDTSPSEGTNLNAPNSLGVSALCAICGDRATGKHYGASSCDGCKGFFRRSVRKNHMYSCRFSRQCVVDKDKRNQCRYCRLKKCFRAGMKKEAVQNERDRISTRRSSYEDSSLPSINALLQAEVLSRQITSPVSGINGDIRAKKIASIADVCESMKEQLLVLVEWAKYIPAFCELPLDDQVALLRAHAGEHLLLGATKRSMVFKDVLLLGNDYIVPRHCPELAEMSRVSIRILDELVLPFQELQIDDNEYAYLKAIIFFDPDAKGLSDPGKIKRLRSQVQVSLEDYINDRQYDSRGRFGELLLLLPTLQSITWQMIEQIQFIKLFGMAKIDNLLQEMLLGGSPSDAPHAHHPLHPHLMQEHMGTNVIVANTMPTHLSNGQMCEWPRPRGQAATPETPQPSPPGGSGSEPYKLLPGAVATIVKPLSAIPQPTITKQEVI
Procedure: Insulin Promoter Activity. T6PNE cells (Kiselyuk, et al. (2012) Chem. Biol. 19(7):806-818; Kiselyuk, et al. (2010) J. Biomol. Screen 15(6):663-70) are seeded at 2000 cells per well in 384-well tissue culture plates in the presence of 1 μM tamoxifen and 0.03 mM palmitate. After a 24-hour incubation, a compound of the invention is added to the cells. Forty-eight hours after compound addition, cells are fixed in 4% paraformaldehyde and stained with DAPI. Blue (DAPI) and green (human insulin promoter driving GFP) channels are imaged.
Inhibition of HNF4α GFP Expression. Using the insulin promoter assay described herein, activity of HNF4α was assessed in the presence of BI-6015 (0, 2.5, 5 μM), a known antagonist of HNF4α (Kiselyuk, et al. (2012) Chem. Biol. 19(7):806-818), in combination with N-trans-caffeoyltyramine (0, 5, 10, 20 μM).
Given the role of HNF4α in maintaining a health metabolism in humans, test compounds were screened for activity as HNF4α agonists (either direct or indirect effects). Using a known insulin promoter-reporter assay Kiselyuk and colleagues (2010. J. Biomol. Screen 15(6):663-70) screened a library of compounds for activity to promote insulin activation. […] The OTC promoter is known to be responsive to HNF4α in transient transfection assays (Inoue, et al. (2002) J. Biol. Chem. 277:25257-65).
Plant compounds in the top 10th percentile of similarity to the 18 target structures were selected and compounds predicted to be potential agonists of HNF4α activity given their chemical structural features were screened in the HNF4α assay.

HNF4α mRNA = HNF4α mRNA levels by quantitative PCR; format: cell-based; settings: FIG. 3
Procedure: Expression of Insulin and HNF4α. RNA was purified using a RNEASY® chromatographic separation and isolation kits (Qiagen), and converted to cDNA using the gScript™ cDNA SuperMix (Quanta Biosciences). Q-PCR was conducted with cDNA corresponding to 2 μg of RNA using an Opticon Real-Time System (MJ Research) and QPCR SuperMix (BioPioneer). See All mRNA values were normalized to 18S rRNA values and are expressed as fold changes over vehicle-treated control.

[1] = Hepatic microsome stability assay, mouse; format: in vitro ADME; settings: for % Remaining: mouse microsomes
Procedure: Hepatic Microsome Assay. Hepatic microsomes stability assays were performed in accordance with known methods (Peddibhotla, et al. (2013) ACS Med. Chem. Lett. 4:846-851). Briefly, 3 μL of 25 μM compound solution in acetonitrile were incubated with 123 μL of mouse, human or rat liver microsomes (Xenotech, Kansas City, KS). After preincubation at 37° C. for 10 minutes, enzyme reactions were initiated by adding 120 !at of NADPH-generating system (2 mM NADP+, 10 mM glucose-6-phosphate, 0.4 U/ml glucose-6-phosphate dehydrogenase, and 5 mM MgCl2) in the presence of 100 mM potassium phosphate buffer (pH 7.4). […] The microsomal concentrations used were 1.0 mg/mL. Compounds were incubated in microsomes for 0, 5, 15, 30 and 60 minutes. The reactions were stopped by the addition of ice cold ACN and the reaction mixtures were centrifuged at 10,000 g for 10 minutes before the supernatant was removed for analysis. A 10 μL portion of the resulting extract was injected on a Thermo HPLC system equipped with PAL CTC plate sampler (96-well plate), Dionex Ultimate 3000 binary pump (flow rate at 0. 600 mL/min), Dionex Ultimate 3000 thermostatted column compartment (temperature at 40° C.), Thermo Endura Mass Spectrometer (ESI source), using a Thermo Scientific Accucore C18 (2.6 μM, 2.1×50 mm) column. A gradient was run starting at 95% H2O (0.1% formic acid) and 5% ACN (0. 1% formic acid) during the first 0. 5 min, then under gradient condition of 5-100% ACN (0.1% formic acid) from minute 0. 5 to 3.5, finishing at 95% H2O (0.1% formic acid) and 5% ACN (0.1% formic acid) over 0.5 min, with another 1 min at 95:5 to re-equilibrate.

HepG2 cells = test: Lipid clearance (steatosis assay) in HepG2 cells; format: cell-based; settings: HepG2 liver cells, 20 μM
Procedure: Lipid Clearance in HepG2 and T6PNE Cells (Steatosis Assay). The steatosis assay was carried out as described (Kiselyuk, et al. (2012) Chem. Biol. 19(7):806-818) with the exception of the drug concentration, which was 20 μM for N-trans-caffeoyltyramine with 0.25 mM palmitate in HepG2 cell lines, and 10 μM of either N-trans-caffeoyltyramine, N-trans-caffeoyltyramine, or p-coumaroyltyramine, with 0.25 mM palmitate in T6PNE cell lines. Steatosis was assessed using the Oil Red O Method for Fats kits (Poly Scientific; Warrington, PA), per manufacturer's guidelines. Briefly, frozen tissue slides or fixed cells were incubated in neat propylene glycol for 2 minutes and Oil Red O solution for […] for slides or 1 hour for fixed cells, differentiated in 85% propylene glycol solution for 1 minute, washed twice with distilled water and stained in Hematoxylin of 10 seconds. Slides were mounted with glycerin jelly mounting medium.

in vivo = settings: male, C57BL/6, mouse
Procedure: Bioavailability Determinations.
A blood sample from each mouse was drawn at 0.25, 0.5, 1, 2, 4, 6 and 24 hours after administration. An 8μL aliquot of blood was used for analysis. After adding 200 μL of an internal standard comprising 100 ng/mL Labetalol, 100 ng/mL dexamethasone, 100 ng/mL tolbutamide, 100 ng/mL Verapamil, 100 ng/mL Glyburide, and 100 ng/mL Celecoxib in ACN, the mixture was vortex-mixed and centrifuged at 12000 rpm for 15 minutes at 4° C. to pellet precipitated protein. Four μL at of the supernatant was injected for LC-MS/MS analysis. Bioavailability (%) was calculated using AUC0-inf(% AUCExtra<20%) or AUC0-last, (% AUCExtra >20%) with nominal dose.

In the case of `O=C(/C=C/c1ccc(O)c(O)c1)NCCc1ccc(O)cc1` [N-trans-caffeoyltyramine], the “potency in activating HNF4α relative to Alverine” value (HNF4α; FIG. 1, dose-response, insulin promoter activity) was “roughly an order-of-magnitude more potent than Alverine”, the “HNF4α activation / bioactivity (screening result in words)” value (HNF4α; HNF4α assay, screening and SAR statements) was “able to act as HNF4α modulators” and the HNF4α gene expression (HNF4α mRNA) was “upregulated”. It also gave a half-life at 1 μM ([1]; liver microsomes, pH 7.4, 1 μM) of 0.8 min, a microsomal CLint at 1 μM ([1]; liver microsomes, pH 7.4, 1 μM, read-out: Clearance Rate) of 1760 µL/min/mg and a half-life at 10 μM ([1]; liver microsomes, pH 7.4, 10 μM) of 6.9 min. The microsomal CLint at 10 μM ([1]; liver microsomes, pH 7.4, 10 μM, read-out: Clearance Rate) was 200 µL/min/mg, the “% Remaining” value ([1]; 1 μM) was 0.4% and the “% Remaining” value ([1]; 10 μM) was 0.3%. The “clearing of fats, Oil Red O staining” value (HepG2 cells) was “capable of clearing harmful fats from the liver”, the accumulation of fats (HepG2 cells; 0.25 mM palmitate) was “inhibited accumulation of fats” and the bioavailability (in vivo) was about 11%.
